# Laboratory results published in patent publication US20170072007A1, “PHANTOM PHENOMENA TREATMENT” (OTOLANUM AG, priority 2005, published 2017).
# “Also recorded” adds a separate entry of the source. Read-outs that look alike come from different tables or passages of the source.
# Experiments:
# [1] = test system: c-fos, BDNF exon-III, BDNF exon-IV and Arc in auditory cortex
# Experimental: Total RNA was isolated using the total RNeasy kit from Qiagen both from the cochlea and from brain tissue and was treated with DNase (Ambion) in order to remove DNA contaminants. The RNA was then purified and the concentration was determined by spectrometric measurements. Reverse transcription of the brain tissue was carried out in a reaction volume of 20 μl using 1 μg of total RNA as template and [sequence] II Rnase H reverse transcriptase according to the Invitrogen protocol. Because of the limited amount of RNA in the cochlear tissues, Qiagen Senscript reverse transcriptase was used, as described in the Qiagen protocol, using 50 ng of total RNA as template. The number of cycles and the annealing temperature for the PCR was optimized so that the signals obtained for BDNF, c-fos and glyceraldehyde-3-phosphate dehydrogenase (GAPDH) were not saturated.
# The PCR was carried out in a final reaction volume of 25 μl, using both primers for GAPDH and the activity-dependent genes simultaneously. In this duplex PCR reaction, a housekeeping gene in the same PCR reaction represents an internal control, so that the intensity of the activity-dependent gene can be compared unambiguously with the control and the treated samples. PCR ready-to-go beads from Amersham Pharmacia were used in order to ensure a standardization of the PCR conditions and to reduce contamination during pipetting. Finally, the PCR products were analyzed in a 2% agarose gel which was visualized using an ethidium bromide stain and densitometric analysis using an Alpha Imager 2200 from Biometra. The intensity of the amplified activity-dependent gene was normalized for each reaction to the level of the coamplified GAPDH. The amplification conditions for arc, BDNF, c-fos and GAPDH were for the initial denaturation phase of 94° C. for three minutes, 30 cycles each of one minute of denaturation (94° C.), one minute of annealing (54° C.), 1.5 minutes of extension (72° C.) and a final extension phase of ten minutes at 72° C.
# The auditory cortices investigated were obtained from animals in which the cochlea were investigated for the dose-dependent effect of salicylate, the mRNA was isolated and an RT-PCR was carried out as described under Material and Methods.
# [2] = test system: c-fos, BDNF exon-III and BDNF exon IV in cochlear spiral ganglia; conditions: local 5 μl 70 mg/ml and systemic 350 mg/kg, versus artificial perilymph
# Experimental: Carbon dioxide was used for deep anesthesia of the animals, which were then decapitated. The cochleae were isolated and prepared as described previously; cf. […] Briefly, the cochleae were fixed by immersion in 2% paraformaldehyde, 125 mM sucrose in 100 mM phosphate-buffered saline (PBS), pH 7.4, for two hours and, following the fixation, decalcified in rapid bond decalcifier (#904687, Eurobio, Fisher-Scientific, 61130 Nidderau, Germany) for 45 minutes, subsequently followed by incubation in 25% sucrose, 1 mM protease inhibitor (Pefabloc, Roche) in Hanks buffered saline overnight. Following the overnight incubation, the cochleae were embedded in O.C.T. compound (Miles Laboratories, Elkhart, Ind., USA). The tissues were then cryosectioned with a thickness of 10 μm for the in situ hybridization, stored on SuperFrost*/plus slides and stored at −20° C. before use.
# Genomic DNA from rat liver tissue was isolated using the Easy DNA kit from Invitrogen in accordance with the manufacturer's information. A polymerase chain reaction was carried out in order to amplify all four non-coding 5′ exons of the BDNF gene.
# In the PCR reaction, the genomic DNA was first denatured at 94° C. for four minutes, followed by 30 cycles of one minute at 94° C., one minute at 55° C. and one minute at 72° C. The extension reaction was carried out at 70° C. for 10 minutes. […]
# [3] = before and 20 hours after local salicylate, 5 μl, 70 mg/kg, n=5
# Source text: Adult female Wistar rats weighing between 280 and 300 grams were used for the experiments. The treatment and handling of these animals took place in conformity with the institutional guidelines of Tübingen University, Tierforschungsanstalt.
# (§1) The rats were anesthetized intraperitoneally by the method of Guitton, M. J. et al. (2003), Salicylate induces tinnitus through activation of cochlear NMDA receptors, J. Neurosci. 23, pages 3944 to 3952, in order to place a so-called gel foam (Gelita Tampon; B. Braun Medical, Melsungen, Germany) over the round window of both ears. The gel foam was impregnated as indicated with salicylate, which was diluted in artificial perilymph solution (70 mg/ml), or with the corresponding volume of artificial perilymph alone. The gel foam was in the niche of the round window as described; Guitton J. et al. (loc. cit.). The salicylate was locally administered thus for 20 hours. After this time, the animals were sacrificed and the cochlea and the auditory cortex were removed.
# The anesthesia of the animals and the ABR screening was carried out as described previously; cf. Knipper, M. et al. (2000), loc. cit.; Schimmang, T. et al. (2003), Lack of BDNF and trkB signalling in the postnatal cochlea leads to a spatial reshaping of innervation along the tonotopic axis and hearing loss, Development 130, pages 4741 to 4750. […]
# [4] = test system: c-fos, BDNF exon-III and BDNF exon IV transcripts in cochlear tissue
# Experimental: as §1
# [5] = test system: BDNF exon IV expression in cochlear neurons; assay: Salicylate-induced acute tinnitus: effect of test substance on BDNF/c-fos expression in cochlear neurons (RT-PCR); type: in vivo, rat
# [6] = test system: Arc expression in auditory cortex; assay: Salicylate-induced acute tinnitus: effect of test substance on gene expression in the auditory cortex (RT-PCR); type: in vivo, rat; conditions: systemic 0.5 mg/kg, 2.5 hours after 350 mg/kg salicylate, n=12, p<0.05
# Experimental: Rnase H reverse transcriptase according to the Invitrogen protocol.
# Two and half hours after the induction of acute tinnitus by injection of 350 mg/kg salicylate, the animals received systemic administration of midazolam (Dormicum, Roche, Grenzach-Wyhlen, Germany) (0.5 mg/kg of body weight), and gene expression was investigated after removal of organs with the aid of RT-PCR. […] Statistical analysis was carried out with Student's T test; *=p<0.05.
# In a further experiment corresponding to the above, a GABA receptor agonist was administered, under conditions which were otherwise identical, not systemically but locally into the niche of the round window.
# [7] = increasing amounts of salicylate locally into round window niche, n=3
smiles,measurement,setting,value
O=C(O)c1ccccc1O [salicylate],decrease in the expression of BDNF exon-IV (densitometric analysis),"[1]; auditory cortex, n=8, p<0.05",49±12%
same,decrease in the expression of c-fos (densitometric analysis),"[1]; auditory cortex, n=8, p<0.05",69±11%
same,expression of Arc in the auditory cortex,[1]; [7],decreased
same,"expression of c-fos, BDNF exon-III and BDNF exon-IV in the auditory cortex","[1]; local administration, all dosages of salicylate",reduction
same,expression of Arc in the primary auditory cortex,[1]; systemic 350 mg/kg salicylate,decrease
same,"hybridization signals for c-fos, BDNF exon-III and BDNF exon IV in the middle basal cochlear turn",[2],significantly increased
same,frequency-specific ABR screening,[3],no loss of hearing
same,increase in the expression of BDNF exon-IV (densitometric analysis),"[4]; cochlea, n=8, p<0.05",49±12%
same,increase in the expression of c-fos (densitometric analysis),"[4]; cochlea, n=8, p<0.05",69±11%
same,c-fos expression in cochlear tissue,"[4]; gel foam local, 5 μl, 70 mg/ml, found at 20 hours, not at three hours",significant upregulation
same,expression of the BDNF exon-IV transcript in cochlear neurons,[4]; [7],increased
same,expression of BDNF exon-IV and c-fos in cochlear neurons,[4]; systemic 350 mg/kg salicylate,elevated expression
same,c-fos expression in cochlear tissue,"[4]; systemic i.p. 350 mg/kg of body weight, after three hours",upregulation
COC(=O)C1=C(C)NC(C)=C(C(=O)OC(C)C)C1c1cccc2nonc12 (centres unmarked) [isradipine],salicylate-induced upregulation of BDNF (exon IV) in cochlear neurons,"[5]; 10 μl of 10 mM solution locally at round window 22 hours before tissue removal, salicylate 350 mg/kg systemic 3 hours before",inhibited
Cc1ncc2n1-c1ccc(Cl)cc1C(c1ccccc1F)=NC2 [midazolam],effect of salicylate on the expression of Arc in the auditory cortex,[6],significant reduction
same,effect of salicylate on the expression of BDNF exon-IV in cochlear neurons,"[5]; systemic 0.5 mg/kg, 2.5 hours after 350 mg/kg salicylate, n=7, p<0.05",significant reduction; also recorded: significantly reduced; also recorded: inhibited
same,effect on salicylate-changed expression of c-fos,"[5]; systemic 0.5 mg/kg, 2.5 hours after 350 mg/kg salicylate, n=7 to 12",remains incapable of being influenced
